Laboratory results as given in patent publication US8246942B2, “Microbicidal compositions” (LANXESS Deutschland GmbH, priority 2000, dated 2012).
Where two headings read alike, the source gives them in different places. Blank lines part the entries; values can stand above or below the molecule they belong to.

Test system: Pseudomonas fluorescens
Test: Determination of the minimum inhibitory concentration (MIC) against Pseudomonas fluorescens
Type: cell-based
Settings: for MIC: Pseudomonas fluorescens, read-out: MIC value against Pseudomonas fluorescens
From the text: The observed synergism of the active compound mixtures, claimed in the present application, consisting of o-phenylphenol (OPP) and other bactericides can be determined by the following mathematical equation (see F. C. Kull, P. C. Elisman, H. D. Sylwestrowicz and P. K. Mayer, Appl. Microbiol. 9, 538 (1960):
[formula] where • Qa=the amount of component A in the active compound mixture which achieves the desired effect, i.e. no microbial growth. • QA=the amount of component A which, when used on its own, suppresses the growth of the microorganisms. • Qb=the amount of component B in the active compound mixture which suppresses the growth of the microorganisms. • Qb=the amount of component B which, when used on its own, suppresses the growth of the microorganisms.
A synergistic index of <1 indicates a synergistic effect for the active compound mixture.
Determination of the Minimum Inhibitory Concentration (MIC) of Compositions According to the Invention Against Pseudomonas fluerescens

[1] = Example 2, OPP/Tektamer 38, weight ratios

MIC (Example 1, OPP/BNPD (bronopol), weight ratios): 35 µg/mL
Structure (SMILES): O=[N+]([O-])C(Br)(CO)CO [BNPD, 2-bromo-2-nitro-1,3-propanediol]

Structure (SMILES): Cn1sccc1=O [MIT, 2-methyl-2H-isothiazol-3-one]
MIC: 30 µg/mL

Structure (SMILES): Oc1ccccc1-c1ccccc1 [OPP, o-phenylphenol]
MIC value against Pseudomonas fluorescens [1]: 500 µg/mL
MIC value against Pseudomonas fluorescens (Example 3, OPP/MIT, weight ratios): 500 µg/mL
MIC: 500 µg/mL

MIC [1]: 100 µg/mL
Structure (SMILES): N#CCCC(Br)(C#N)CBr (stereo not drawn) [Tektamer 38, 1,2-dibromo-2,4-dicyanobutane]
